In the oligonucleotide strings, read from the 5' end, every base follows the letter of its sugar. An asterisk marks phosphorothioate; unmarked linkages are phosphodiester. Other units and linkages are bracketed, terminal groups are in braces. A string of capitals states the bases alone. e = 2'-O-(2-methoxyethyl) (MOE); [5mC] = 5-methylcytosine; d = 2'-deoxy (DNA)
Tested on: B16-F10 cells
Test: Cell cycle assay in B16-F10 cells
Type: cell-based, mouse
Details: 150 nM, 48 hours, relative to untreated control

328403 (antisense eA*eG*eG*e[5mC]*e[5mC]*dT*dA*dT*dT*d[5mC]*d[5mC]*dT*dG*dT*dA*eG*e[5mC]*eA*eA*eA) [compound 328403]
% cells in cell cycle phase G1: 111%
% cells in cell cycle phase G2/M: 99%
% cells in cell cycle phase S: 88%
% cells in cell cycle phase aneuploid: 92%
% cells in cell cycle phase subG1: 112%

From US8178506B2, “Oligomeric compounds and compositions for use in modulation of small non-coding RNAs” (Regulus Therapeutics Inc., priority 2003, dated 2012)
